Literature values, collected in patent US6441041B1, “(-)-hydroxycitric acid for the prevention of osteoporosis” (priority 2001, dated 2002).

Legend:
[1] = test system: female Zucker lean (Fa/−) rats; details: lean animals
[2] = test system: female Zucker obese (Fa/fa) rats; details: obese animals

O=C([O-])CC(O)(C(=O)[O-])C(O)C(=O)[O-].[Na+].[Na+].[Na+] (stereo not drawn) [Tri-NaHCA, trisodium (−)-hydroxycitrate]
Carcass protein and ash/mineral content in comparison with control [1]: increased carcass protein and ash/mineral content
Carcass protein and ash/mineral content in comparison with control [2]: increased carcass protein and ash/mineral content
